Entries after “also recorded” stand apart in the source; their conditions may differ. Like-named read-outs stand apart in the source and are kept apart here.
How the values were obtained:
ER-β = ER-β (Rattus norvegicus (Rat), UniProt Q62986); experiment: ER-β transactivation (ERE-LUC) in COS or 293 cells; assay type: cell-based; details: for activation at 0.1 µM: HEK293, 48 h
ER-α = ER-α (Rattus norvegicus (Rat), UniProt P06211); assay type: cell-based; details: 100 nM compound compared to 1 nM estradiol
Experimental: COS or 293 cells were plated in DME without phenol red+10% cs FBS at 90,000 cells per well in 24 well plates, and were transfected with 0.25 μg of the vector “ERE-LUC”, where a firefly luciferase gene was driven by two estrogen responsive elements and 0.02 μg of the control CMV-LUC, Renilla where a luciferase gene was driven by a CMV promoter. […] All the receptors were cloned from rat tissue into the PCR3.1 vector backbone. Twenty four hours post transfection, cells were treated with compounds of this invention, estrogen, DHT, and other NRBAs or combinations thereof. Cells were harvested 48 hrs after transfection, and assayed for firefly and Renilla luciferase activity.

[1] = molecular target: ERβ ligand binding domain (Homo sapiens, UniProt Q92731); experiment: Competitive [3H]-estradiol binding assay, ER-β (Example 21); details: for inhibition at 0.1 µM: read-out: Percent Inhibition of [3H]-Estradiol Binding to ER-β; for Ki: read-out: ER-β binding constant (Ki)
Experimental: (§1) ER binding affinity was determined via one of the following methods:
(§2) Briefly, the incubation mixture was filtered through a high affinity protein binding filter, and washed several times to remove any unbound radioactivity. The filter plate was air dried and sealed on the bottom.
(§3) Nonspecific binding was subtracted from total binding to yield specific binding.

[2] = molecular target: ERα ligand binding domain (Homo sapiens, UniProt P03372); experiment: Competitive [3H]-estradiol binding assay, ER-α (Example 21); details: for inhibition at 0.1 µM: 100 nM of compound, read-out: Percent Inhibition of [3H]-Estradiol Binding to ER-α; for Ki: read-out: ER-α binding constant (Ki)
Experimental: as §1, §2, §3

ARPE-19 cells = experiment: Fluorescent detection of intracellular ROS; assay type: cell-based, Human; details: 150 μM tBH
Source text: Cells were allowed to adhere overnight. […] Removed and washed cells once with HBSS. […] Each drug concentration was done in triplicates.

rat aorta rings = experiment: Rat aortic ring relaxation; details: 10^-6 PE constriction; for EC50: Rattus norvegicus
Source text: Experimental protocol. Equipment used in these studies included a 4-tissue bath system with reservoirs and circulators (RadnotiGlass Technology, Monrovia, Calif.), DSI/Ponemah tissue force analyzer 7700 (Valley View, Ohio), and iWorx/CB Sciencesforce transducers FT-302. The 250 g rats were anesthetized with isoflurane to produce deep anesthesia. The chest of the rat was opened, and about 3 cm length of aorta was removed and placed in a Petri dish containing room temperature Krebs salt solution (KSS, in mM: 120 NaCl, 5 KCl, 1.2 MgSO4.7H20, 2.5 CaCl2.2H2O, 1 KH2PO4, 25 NaHCO3, and 11 glucose). Fat and connective tissue were removed from the aorta taking care not to stretch the vessel. The aorta was then divided into 3-mm-wide rings. Triangular wire holders were inserted through the lumen of the vessel and connected to the force transducer and tissue holder rod in the vessel bath.
Analog-to-digital conversions of force waveforms were accomplished with a DSI/Ponemah tissue force analyzer 7700. The converted data were automatically analyzed with Ponemah Physiology-Smooth Muscle software. All data are summarized as means±standard error. Differences between means were assessed by a conventional ANOVA. This was followed by Student's test. P<0.05 was considered to be statistically significant.
The tension on the rings was adjusted to 1.0 g passive force using the tension adjustment dial for each transducer and allowed to equilibrate for 60 min in the bath with a 95% O2-5% CO2 gas mixture. The rings were washed with fresh buffer every 20 min. Passive force was readjusted to 1.0 g as needed during this period. When rings were stable at 1.0 g of passive force, the baseline was calculated.
Phenylephrine (PE) at a final concentration of […] was added to the bath to contract the ring, and force was allowed to stabilize for 10 min. Then acetylcholine (ACH) at a final concentration of 10^−5 M was added to the precontracted rings to test for endothelial integrity […]. After the initial test for vessel viability and endothelial integrity, the rings were washed three times for 10 min with buffer, allowing it to equilibrate to active force stabilized at 1 g.
Cumulative concentration-response curves to NRBAs were created by increasing the NRBAs concentration in the tissue bath by successive addition of appropriate dilutions of stock solutions to achieve final bath concentrations of 300 nM to 0.15 mM NRBAs.
Table 10 summarizes EC50 values and maximal % decrease of the 10^−6 PE constriction of the aortic ring for individual NRBAs tested

[3] = test system: Rat Aortic Smooth Muscle Cells (RASMC); experiment: RASMC cell proliferation assay (WST-1); assay type: cell-based; details: for EC50: inhibitory effect sigmoid Emax model, read-out: EC50 for inhibition of RASMC proliferation; for Proliferation of RASMC: concentration between 10-30 μM
Experimental: EC50 values were calculated using WinNonLin 5.0.1 using the inhibitory effect sigmoid Emax model.

[4] = read-out: Estradiol activity at 100 nM of NRBA, ER-β

ERβ ligand binding domain, sequence (Q92731 whole entry, looked up, the tested form may be a part): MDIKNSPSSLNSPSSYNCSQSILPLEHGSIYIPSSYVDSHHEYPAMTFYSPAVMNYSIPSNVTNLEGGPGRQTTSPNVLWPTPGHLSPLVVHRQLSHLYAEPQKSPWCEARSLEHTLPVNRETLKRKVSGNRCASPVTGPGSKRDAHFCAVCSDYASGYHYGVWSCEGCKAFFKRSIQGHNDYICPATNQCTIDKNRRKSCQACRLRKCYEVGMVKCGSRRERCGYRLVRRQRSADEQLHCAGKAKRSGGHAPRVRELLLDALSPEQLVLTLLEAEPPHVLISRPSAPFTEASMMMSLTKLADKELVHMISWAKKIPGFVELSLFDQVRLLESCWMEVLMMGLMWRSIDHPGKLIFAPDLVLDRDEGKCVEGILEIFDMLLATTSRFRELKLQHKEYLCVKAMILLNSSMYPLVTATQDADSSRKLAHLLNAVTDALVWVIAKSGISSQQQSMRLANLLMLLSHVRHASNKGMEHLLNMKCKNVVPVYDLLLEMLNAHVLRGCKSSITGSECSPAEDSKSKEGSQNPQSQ
ERα ligand binding domain, sequence (P03372 whole entry, looked up, the tested form may be a part): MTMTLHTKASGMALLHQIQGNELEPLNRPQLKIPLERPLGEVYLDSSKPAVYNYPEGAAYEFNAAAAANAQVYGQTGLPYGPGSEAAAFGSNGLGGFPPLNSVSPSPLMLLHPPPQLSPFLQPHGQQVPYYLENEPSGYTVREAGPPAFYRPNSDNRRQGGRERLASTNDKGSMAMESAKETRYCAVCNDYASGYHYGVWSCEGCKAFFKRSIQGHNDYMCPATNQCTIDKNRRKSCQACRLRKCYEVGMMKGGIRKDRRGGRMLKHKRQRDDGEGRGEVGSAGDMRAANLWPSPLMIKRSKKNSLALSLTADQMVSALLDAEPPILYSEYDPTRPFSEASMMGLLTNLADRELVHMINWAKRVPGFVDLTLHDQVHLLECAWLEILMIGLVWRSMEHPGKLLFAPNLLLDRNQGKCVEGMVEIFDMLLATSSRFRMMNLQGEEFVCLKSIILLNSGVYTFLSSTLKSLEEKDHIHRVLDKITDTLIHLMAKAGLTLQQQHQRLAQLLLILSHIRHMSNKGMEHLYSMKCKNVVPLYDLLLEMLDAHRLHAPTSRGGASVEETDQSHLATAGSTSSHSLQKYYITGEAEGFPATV
ER-β, sequence (Q62986 whole entry): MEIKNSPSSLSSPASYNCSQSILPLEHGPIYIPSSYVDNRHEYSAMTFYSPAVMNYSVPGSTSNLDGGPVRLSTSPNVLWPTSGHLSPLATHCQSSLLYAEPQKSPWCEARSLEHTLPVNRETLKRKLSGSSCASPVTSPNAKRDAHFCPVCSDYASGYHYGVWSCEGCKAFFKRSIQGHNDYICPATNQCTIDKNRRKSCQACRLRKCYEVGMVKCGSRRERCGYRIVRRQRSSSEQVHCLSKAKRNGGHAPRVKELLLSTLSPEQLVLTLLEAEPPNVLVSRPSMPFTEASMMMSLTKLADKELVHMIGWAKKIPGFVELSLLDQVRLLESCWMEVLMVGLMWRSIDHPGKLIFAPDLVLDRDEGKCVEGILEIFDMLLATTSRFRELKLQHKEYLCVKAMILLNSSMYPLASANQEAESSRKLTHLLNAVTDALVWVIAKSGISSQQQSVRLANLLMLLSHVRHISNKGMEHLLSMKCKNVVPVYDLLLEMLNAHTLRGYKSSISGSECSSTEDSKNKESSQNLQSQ

COc1cc(O)c2c(=O)n(-c3ccc(O)cc3)ccc2c1C#N [12q, 8-hydroxy-2-(4-hydroxyphenyl)-6-methoxy-1-oxo-1,2-dihydroisoquinoline-5-carbonitrile]
activation at 0.1 µM (ER-β; [4]): 10% | Estradiol activity at 100 nM of NRBA, ER-α (ER-α): 25%

O=c1c2ccc(O)cc2c(Cl)cn1-c1ccc(O)cc1 [12f, 4-chloro-6-hydroxy-2-(4-hydroxyphenyl)-isoquinolin-1(2H)-one]
ER-β agonist activity (ER-β): ER-β agonist activity | Ki Ratio (ER-α/ER-β) [1]: 61 | inhibition at 0.1 µM [1]: 47.5% | inhibition at 0.1 µM [2]: 0%

O=c1c2ccc(O)cc2c(Br)cn1-c1ccc(O)c(F)c1 [12d, 4-bromo-2-(3-fluoro-4-hydroxyphenyl)-6-hydroxy-isoquinolin-1(2H)-one]
inhibition at 0.1 µM [1]: 38.7% | inhibition at 0.1 µM [2]: 0%

Oc1ccc(-n2ccc3cc(O)cc(O)c3c2=S)cc1 [12p, 2-(4-hydroxyphenyl)-6,8-dihydroxy-isoquinoline-1(2H)-thione]
ER-β agonist activity (ER-β): ER-β agonists; also recorded: ER-β agonist activity | activation at 0.1 µM (ER-β; [4]): 85% | Ki Ratio (ER-α/ER-β) [1]: 8 | inhibition at 0.1 µM [1]: 80.7% | inhibition at 0.1 µM [2]: 25.8% | Estradiol activity at 100 nM of NRBA, ER-α (ER-α): 45%

O=c1c2ccc(O)cc2c(I)cn1-c1ccc(O)c(F)c1 [12n, 2-(3-fluoro-4-hydroxyphenyl)-6-hydroxy-4-iodoisoquinolin-1(2H)-one]
inhibition at 0.1 µM [1]: 8.7% | inhibition at 0.1 µM [2]: 6.2%

Oc1ccc(-n2cc(Br)c3cc(O)ccc3c2=S)cc1 [12r, 4-bromo-6-hydroxy-2-(4-hydroxyphenyl)isoquinoline-1(2H)-thione]
inhibition at 0.1 µM [1]: 75.5% | inhibition at 0.1 µM [2]: 35.7%

COc1ccc(-c2cn(-c3ccc(O)cc3)c(=O)c3c(O)cc(O)cc23)cc1 [15g, 6,8-dihydroxy-2-(4-hydroxyphenyl)-4-(4-methoxyphenyl)isoquinolin-1(2H)-one]
Ki [1]: 0.48 nM

O=c1c2c(O)cc(O)c(Br)c2ccn1-c1ccc(O)cc1 [12m, 5-bromo-6,8-dihydroxy-2-(4-hydroxyphenyl)isoquinolin-1(2H)-one]
inhibition at 0.1 µM [1]: 0% | inhibition at 0.1 µM [2]: 5.2%

C/C=C/c1cn(-c2ccc(O)cc2)c(=O)c2c(O)cc(O)cc12 [15i, (E)-6,8-dihydroxy-2-(4-hydroxyphenyl)-4-(prop-1-enyl)isoquinolin-1(2H)-one]
Ki Ratio (ER-α/ER-β) [1]: 61.4 | Ki [2]: 102 nM

O=c1c2c(O)cc(O)cc2c(Br)cn1-c1ccc(O)c(F)c1 [12z, 4-bromo-6,8-dihydroxy-2-(3-fluoro-4-hydroxyphenyl)isoquinolin-1(2H)-one]
ER-β agonist activity (ER-β): ER-β agonist activity | Prevention of ROS formation / oxidative stress (ARPE-19 cells): able to prevent ROS formation as well as estradiol; also recorded: protected ARPE-19 cells from oxidative damage | Mean of Maximal % Decrease of the PE constriction of the aortic ring (rat aorta rings): 83.58% | EC50 (rat aorta rings): 15100 nM | Ki Ratio (ER-α/ER-β) [1]: 12 | Ki [1]: 3 nM | inhibition at 0.1 µM [1]: 95.3% | EC50 ([3]; Rattus norvegicus): 25000 nM | inhibition at 0.1 µM [2]: 52.8%

COc1cc(O)c2c(=O)n(-c3ccc(O)cc3)cc(Br)c2c1 [12v, 4-bromo-8-hydroxy-2-(4-hydroxyphenyl)-6-methoxyisoquinolin-1(2H)-one]
activation at 0.1 µM (ER-β; [4]): 10% | Estradiol activity at 100 nM of NRBA, ER-α (ER-α): 17%

O=c1c2ccc(O)cc2c(Cl)cn1-c1ccc(O)c(F)c1 [12g, 4-chloro-2-(3-fluoro-4-hydroxyphenyl)-6-hydroxy-isoquinolin-1(2H)-one]
inhibition at 0.1 µM [1]: 29.4% | inhibition at 0.1 µM [2]: 0%

COc1ccc(-c2cn(-c3ccc(O)cc3)c(=O)c3ccc(O)cc23)cc1 [15b, 6-hydroxy-2-(4-hydroxyphenyl)-4-(4-methoxyphenyl)isoquinolin-1(2H)-one]
Ki Ratio (ER-α/ER-β) [1]: 8.3

N#Cc1cc(O)cc2c(Br)cn(-c3ccc(O)cc3)c(=O)c12 [14k, 4-bromo-6-hydroxy-2-(4-hydroxyphenyl)-1-oxo-1,2-dihydroisoquinoline-8-carbonitrile]
Ki [1]: 46 nM | Ki [2]: > 394 nM

O=c1c2ccc(O)cc2c(I)cn1-c1ccc(O)cc1 [12h, 6-hydroxy-2-(4-hydroxyphenyl)-4-iodoisoquinolin-1(2H)-one]
ER-β agonist activity (ER-β): ER-β agonist activity | Ki Ratio (ER-α/ER-β) [1]: 22 | inhibition at 0.1 µM [1]: 40.5% | inhibition at 0.1 µM [2]: 7.7%

C=Cc1cn(-c2ccc(O)c(F)c2)c(=O)c2c(O)cc(O)cc12 [15c, 2-(3-fluoro-4-hydroxyphenyl)-6,8-dihydroxy-4-vinylisoquinolin-1(2H)-one]
Ki Ratio (ER-α/ER-β) [1]: 51.7 | Ki [1]: 3.96 nM | Ki [2]: 205 nM

O=c1c2c(O)cc(O)cc2ccn1-c1ccc(O)c(F)c1 [12s, 2-(3-fluoro-4-hydroxyphenyl)-6,8-dihydroxyisoquinolin-1(2H)-one]
ER-β agonist activity (ER-β): ER-β agonist activity | activation at 0.1 µM (ER-β; [4]): 76.9% | Ki Ratio (ER-α/ER-β) [1]: 25 | inhibition at 0.1 µM [1]: 52.8% | inhibition at 0.1 µM [2]: 4.5% | Estradiol activity at 100 nM of NRBA, ER-α (ER-α): 29%

COc1ccc(-c2coc3cc(O)cc(O)c3c2=O)cc1 [Biochanin A, reference compound]
Proliferation of RASMC [3]: inhibited the proliferation of RASMC in a dose-dependent manner | EC50 [3]: 9790 nM

O=c1c2c(O)cc(O)cc2ccn1-c1ccc(O)cc1 [12l, 6,8-dihydroxy-2-(4-hydroxyphenyl)-isoquinolin-1(2H)-one]
inhibition at 0.1 µM [1]: 34.4% | inhibition at 0.1 µM [2]: 2.5%

C=Cc1cn(-c2ccc(O)cc2)c(=O)c2c(O)cc(O)cc12 [14l, 6,8-dihydroxy-2-(4-hydroxyphenyl)-4-vinylisoquinolin-1(2H)-one]
activation at 0.1 µM (ER-β; read-out: Estradiol activity at 100 nM of NRBA, ER-β, 100 nM compound compared to 1 nM estradiol): 52.7% | Inhibition of ROS formation (ARPE-19 cells): more than 50% | Prevention of ROS formation / oxidative stress (ARPE-19 cells): protected ARPE-19 cells from oxidative damage | Mean of Maximal % Decrease of the PE constriction of the aortic ring (rat aorta rings): 45.01% | EC50 (rat aorta rings): 19800 nM | EC50 ([3]; Rattus norvegicus): 9630 nM | Proliferation of RASMC [3]: inhibited the proliferation of RASMC in a dose-dependent manner | Estradiol activity at 100 nM of NRBA, ER-α (ER-α): 50%

O=c1c2c(O)cc(O)cc2c(-c2ccccc2)cn1-c1ccc(O)cc1 [15h, 6,8-dihydroxy-2-(4-hydroxyphenyl)-4-phenylisoquinolin-1(2H)-one]
Ki Ratio (ER-α/ER-β) [1]: 41.1 | Ki [2]: 124 nM

Source: patent US9604931B2, “Nuclear receptor binding agents” (GTx, Inc., priority 2007, dated 2017)
